Patent US8841090B2 (priority 2006, dated 2014)
Entries after “also recorded” stand apart in the source; their conditions may differ. Where two headings read alike, the source gives them in different places.

Experiments:
Gal2 permease = biological target: T1, Gal2 permease (Saccharomyces cerevisiae, UniProt P13181, G90S/H392R/M8V/S50P); format: cell-based, S. cerevisiae; settings: for Competition with L-arabinose transport by Gal2 permease: competing sugars
T1 construct: expressed in transfected cells; host or cells: S. cerevisiae BFY597 (gal2Δ::HIS3, plasmids p138 and p42)
T1 sequence (P13181 whole entry M8V/S50P/G90S/H392R): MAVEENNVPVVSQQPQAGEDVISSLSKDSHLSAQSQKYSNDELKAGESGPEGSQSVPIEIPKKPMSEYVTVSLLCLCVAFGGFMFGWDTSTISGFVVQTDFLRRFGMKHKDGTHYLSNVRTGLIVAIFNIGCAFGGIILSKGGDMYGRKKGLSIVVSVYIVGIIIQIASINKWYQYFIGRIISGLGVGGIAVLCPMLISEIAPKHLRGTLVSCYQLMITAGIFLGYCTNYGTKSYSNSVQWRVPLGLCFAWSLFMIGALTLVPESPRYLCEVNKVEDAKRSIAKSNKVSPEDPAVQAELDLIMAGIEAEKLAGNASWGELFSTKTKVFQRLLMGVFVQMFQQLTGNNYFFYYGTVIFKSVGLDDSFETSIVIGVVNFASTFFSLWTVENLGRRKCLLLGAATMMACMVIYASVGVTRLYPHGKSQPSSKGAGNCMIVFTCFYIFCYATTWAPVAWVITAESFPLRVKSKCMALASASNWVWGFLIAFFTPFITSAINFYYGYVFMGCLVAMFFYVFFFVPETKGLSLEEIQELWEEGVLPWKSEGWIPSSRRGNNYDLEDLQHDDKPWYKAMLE
Description: (§1) Cells are collected in mid-growth and washed twice before suspension in water at 30 mg/ml. Uptake of L-(1-^14C)arabinose (54 mCi/mmol, Moravek Biochemicals Inc.) or D-(1-^14C) galactose (57 mCi/mmol, Amersham Biosciences) is measured as previously described by Stambuk et al. (2003). Assays are performed in 30 seconds to maintain initial rates after appropriate experiments to ensure uptake is linear for at least 1 minute. […] Inhibition and competition assays are performed as previously described by Stambuk et al, (2003).
(§2) The transport characteristics of the KmLat1 and the Gal2 transporters expressed in S. cerevisiae were compared.

KmLat1 transporter [1] = biological target: KmLat1 transporter (Kluyveromyces marxianus, UniProt A0ABX6EN84); assay: L-arabinose transport by KmLat1 expressed in S. cerevisiae, 14C-sugar uptake; format: cell-based; settings: for Inhibition of L-arabinose transport by KmLat1: protonophores and H+-ATPase inhibitors; for Competition with L-arabinose transport by KmLat1: competing sugars
Chain of KmLat1 transporter (Kluyveromyces marxianus, UniProt A0ABX6EN84) (A0ABX6EN84 entry or part of it): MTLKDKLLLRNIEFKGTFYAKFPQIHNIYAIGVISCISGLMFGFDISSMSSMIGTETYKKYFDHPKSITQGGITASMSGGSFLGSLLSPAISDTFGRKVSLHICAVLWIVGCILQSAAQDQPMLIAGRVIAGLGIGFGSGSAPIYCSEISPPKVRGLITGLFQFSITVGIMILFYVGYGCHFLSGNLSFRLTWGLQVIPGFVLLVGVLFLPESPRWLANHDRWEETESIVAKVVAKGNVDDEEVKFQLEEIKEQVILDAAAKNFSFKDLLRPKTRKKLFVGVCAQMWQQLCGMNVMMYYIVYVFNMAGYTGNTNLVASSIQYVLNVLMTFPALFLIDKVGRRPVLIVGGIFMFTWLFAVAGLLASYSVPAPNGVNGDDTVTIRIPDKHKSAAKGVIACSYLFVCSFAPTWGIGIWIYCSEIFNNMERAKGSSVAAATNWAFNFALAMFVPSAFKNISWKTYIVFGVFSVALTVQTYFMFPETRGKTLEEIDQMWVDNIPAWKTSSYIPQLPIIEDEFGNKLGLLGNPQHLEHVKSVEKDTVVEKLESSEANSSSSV
Description: as §1, §2

P. guilliermondii Y-2075 = assay: Sugar transport in wild type P. guilliermondii Y-2075 grown on L-arabinose; format: cell-based, Pichia guilliermondii
PgLAT2 transporter = PgLAT2 transporter (Meyerozyma guilliermondii, UniProt A5DRF8); assay: L-arabinose transport by PgLAT2 transporter expressed in S. cerevisiae BFY605; settings: for Inhibition of L-arabinose transport by PgLAT2: protonophores and H+-ATPase inhibitors; for Competition with L-arabinose uptake by PgLAT2: competing sugars
KmLat1 transporter [2] = assay: L-arabinose transport by KmLat1 expressed in S. cerevisiae, 14C-sugar uptake; format: cell-based, Kluyveromyces marxianus
Description: as §1, §2

[3] = inhibitor NaN3 10 mM, others 5 mM, […] labeled L-arabinose, no inhibitor = 100
[4] = inhibitor NaN3 10 mM, others 5 mM, 0.33 mM labeled L-arabinose, none = 100
[5] = competing sugar 900 mM, 30 mM labeled L-arabinose, no sugar = 100

For O=[N+]([O-])c1ccc(O)c([N+](=O)[O-])c1 [DNP], the “Relative L-arabinose transport (%) Gal2” value (Gal2 permease; [3]) was 72%, the “Relative L-arabinose transport (%) KmLat1” value (KmLat1 transporter [1]; [3]) was 75% and the “Inhibition of L-arabinose transport by KmLat1” value (“Inhibition … by KmLat1” for short) (KmLat1 transporter [1]) was “not significantly inhibited”. The “Relative L-arabinose transport P. guilliermondii” value (P. guilliermondii Y-2075; [4]) was 0, the “Relative L-arabinose transport S. cerevisiae (PgLAT2 transporter)” value (PgLAT2 transporter; [4]) was 4 and the “Inhibition of L-arabinose transport by PgLAT2” value (“Inhibition … by PgLAT2” for short) (PgLAT2 transporter) was “significant inhibition”.
OC[C@H]1O[C@H](O[C@H]2[C@H](O)[C@@H](O)C(O)O[C@@H]2CO)[C@H](O)[C@@H](O)[C@@H]1O (mixture of isomers) [Maltose] was tested, and the “Relative L-arabinose transport (%) KmLat1” value (KmLat1 transporter [1]) was 38%, the “Competition with L-arabinose transport by KmLat1” value (“Competition … by KmLat1” for short) (KmLat1 transporter [1]) was “out-competed” and the “Relative L-arabinose transport S. cerevisiae (PgLAT2 transporter)” value (PgLAT2 transporter) was 30. The “Competition with L-arabinose uptake by PgLAT2” value (from here on “Competition … by PgLAT2”) (PgLAT2 transporter) was “to a lesser extent”.
With [N-]=[N+]=[N-].[Na+] [NaN3] the “Relative L-arabinose transport (%) Gal2” value (Gal2 permease; [3]) was 66%, the “Relative L-arabinose transport (%) KmLat1” value (KmLat1 transporter [1]; [3]) was 11% and the “Inhibition … by KmLat1” value (KmLat1 transporter [1]) was “not significantly inhibited”. For the same molecule, the “Relative L-arabinose transport P. guilliermondii” value (P. guilliermondii Y-2075; [4]) was 1, the “Relative L-arabinose transport S. cerevisiae (PgLAT2 transporter)” value (PgLAT2 transporter; [4]) was 16 and the “Inhibition … by PgLAT2” value (PgLAT2 transporter) was “significant inhibition”.
For CC/C(=C(/CC)c1ccc(O)cc1)c1ccc(O)cc1 [DESB], the “Relative L-arabinose transport (%) Gal2” value (Gal2 permease; [3]) was 81%, the “Relative L-arabinose transport (%) KmLat1” value (KmLat1 transporter [1]; [3]) was 100% and the “Inhibition … by KmLat1” value (KmLat1 transporter [1]) was “Neither is KmLat1 inhibited”. For the same molecule, the “Relative L-arabinose transport P. guilliermondii” value (P. guilliermondii Y-2075; [4]) was 8, the “Relative L-arabinose transport S. cerevisiae (PgLAT2 transporter)” value (PgLAT2 transporter; [4]) was 1 and the “Inhibition … by PgLAT2” value (PgLAT2 transporter) was “significant inhibition”.
With N#CC(C#N)=NNc1cccc(Cl)c1 [CCCP] the “Relative L-arabinose transport (%) Gal2” value (Gal2 permease; [3]) was 46%, the “Relative L-arabinose transport (%) KmLat1” value (KmLat1 transporter [1]) was 61% and the “Inhibition … by KmLat1” value (KmLat1 transporter [1]) was “not significantly inhibited”. The “Relative L-arabinose transport P. guilliermondii” value (P. guilliermondii Y-2075; [4]) was 0, the “Relative L-arabinose transport S. cerevisiae (PgLAT2 transporter)” value (PgLAT2 transporter) was 2 and the “Inhibition … by PgLAT2” value (PgLAT2 transporter) was “significant inhibition”.
With C(=NC1CCCCC1)=NC1CCCCC1 [DCCD] the “Relative L-arabinose transport (%) Gal2” value (Gal2 permease; [3]) was 69%, the “Relative L-arabinose transport (%) KmLat1” value (KmLat1 transporter [1]) was 55% and the “Inhibition … by KmLat1” value (KmLat1 transporter [1]) was “Neither is KmLat1 inhibited”. For the same molecule, the “Relative L-arabinose transport P. guilliermondii” value (P. guilliermondii Y-2075) was 22, the “Relative L-arabinose transport S. cerevisiae (PgLAT2 transporter)” value (PgLAT2 transporter) was 36 and the “Inhibition … by PgLAT2” value (PgLAT2 transporter) was “significant inhibition”.
For O=C[C@H](O)[C@@H](O)[C@H](O)CO [Xylose], the “Relative L-arabinose transport (%) Gal2” value (Gal2 permease; [5]) was 25%, the “Competition with L-arabinose transport by Gal2 permease” value (Gal2 permease) was “significantly reduced” and the “Relative L-arabinose transport (%) KmLat1” value (KmLat1 transporter [1]) was 25%. The “Competition … by KmLat1” value (KmLat1 transporter [1]) was “out-competed”, the “Relative L-arabinose transport P. guilliermondii” value (P. guilliermondii Y-2075) was 4 and the “Reduction of uptake of labeled L-arabinose” value (P. guilliermondii Y-2075; 100× un-labeled competing sugar) was 96%. For the same molecule, the “Relative L-arabinose transport S. cerevisiae (PgLAT2 transporter)” value (PgLAT2 transporter) was 0 and the “Competition … by PgLAT2” value (PgLAT2 transporter) was “inhibited”.
O=C[C@H](O)[C@@H](O)[C@@H](O)[C@H](O)CO [Galactose] was tested, and the “Vmax for galactose transport by Gal2p” value (Gal2 permease; BFY597) was 76 nmol/mg/min, the “Relative L-arabinose transport (%) Gal2” value (Gal2 permease; [5]) was 3% and the “Competition with L-arabinose transport by Gal2 permease” value (Gal2 permease) was “significantly reduced; also recorded: out-competed”. For the same molecule, the Km (Gal2 permease; read-out: Km for galactose transport by Gal2p, BFY597) was 25 mM, the “Relative L-arabinose transport (%) KmLat1” value (KmLat1 transporter [2]; competing sugar 900 mM (maltose 450 mM), 30 mM labeled L-arabinose, no sugar = 100) was 23% and the “Competition … by KmLat1” value (KmLat1 transporter [2]; competing sugars) was “out-competed”. For the same molecule, the “Competition … by PgLAT2” value (PgLAT2 transporter) was “inhibited”.
